Source: patent US6472418B1, “Non-peptide NK1 receptors antagonists” (Warner-Lambert Company, priority 1998, dated 2002)

target: T1, Human NK1 Receptor (Homo sapiens, UniProt P25103); test: In Vitro Human NK1 Receptor Binding Assay ([125I]Bolton-Hunter substance P displacement, IM9 cells); conditions: Human lymphoma IM9 cells, [125I]Bolton-Hunter substance P; Table 3, array-synthesis products; read-out: IC50 (nM) hNK1
T1 construct: endogenous in cells; host or cells: Human lymphoma IM9 cells (whole cells)
T1 sequence (P25103 whole entry): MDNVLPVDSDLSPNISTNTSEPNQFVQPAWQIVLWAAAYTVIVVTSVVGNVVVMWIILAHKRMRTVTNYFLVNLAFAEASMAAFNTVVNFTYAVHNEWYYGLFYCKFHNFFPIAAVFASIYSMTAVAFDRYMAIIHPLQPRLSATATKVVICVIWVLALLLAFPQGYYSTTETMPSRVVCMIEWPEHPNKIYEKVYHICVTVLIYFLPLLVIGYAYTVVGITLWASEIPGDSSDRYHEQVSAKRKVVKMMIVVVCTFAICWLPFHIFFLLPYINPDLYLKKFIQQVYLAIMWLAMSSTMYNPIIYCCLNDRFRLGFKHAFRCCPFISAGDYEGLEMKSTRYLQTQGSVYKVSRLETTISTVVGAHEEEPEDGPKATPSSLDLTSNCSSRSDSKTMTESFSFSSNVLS
Summary of the method: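 Test compounds competed with 0.05-0.1 nM [125I]Bolton-Hunter substance P for binding to intact IM9 cells over 50 min at 21° C, pH 7.4 buffer with MnCl2 and peptidase inhibitors. […] [Sar9, Met(O2)11] substance P gave non-specific binding. Bound counts were measured after filtration and fitted iteratively.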

Compound | IC50
CC(NC(=O)C(Cc1c[nH]c2ccccc12)NCc1cc2ccccc2o1)c1cccc2ccccc12 (centres unmarked) [Example 197, 2-[(Benzofuran-2-ylmethyl)-amino]-3-(1H-indol-3-yl)-N-(1-naphthalen-1-yl-ethyl)-propionamide] | 933 nM
O=C(NCc1ccccc1O)C(Cc1c[nH]c2ccccc12)NCc1cc2ccccc2o1 (centres unmarked) [Example 256, 2-[(Benzofuran-2-ylmethyl)-amino]-N-(2-hydroxy-benzyl)-3-(1H-indol-3-yl)-propionamide] | > 10000 nM
CC(NC(=O)C(Cc1c[nH]c2ccccc12)NCc1cc2ccccc2o1)c1ccn(C)c1 (centres unmarked) [Example 230, 2-[(Benzofuran-2-ylmethyl)-amino]-3-(1H-indol-3-yl)-N-[1-(1-methyl-1H-pyrrol-3-yl)-ethyl]-propionamide] | 21 nM
O=C(NC1CCc2ccccc21)C(Cc1c[nH]c2ccccc12)NCc1cc2ccccc2o1 (centres unmarked) [Example 262, 2-[(Benzofuran-2-ylmethyl)-amino]-N-indan-1-yl-3-(1H-indol-3-yl)-propionamide] | 86 nM
O=C(NCc1ccc([N+](=O)[O-])cc1)C(Cc1c[nH]c2ccccc12)NCc1cc2ccccc2o1 (centres unmarked) [Example 221, 2-[(Benzofuran-2-ylmethyl)-amino]-3-(1H-indol-3-yl)-N-(4-nitro-benzyl)-propionamide] | 23 nM
O=C(NCc1cccs1)C(Cc1c[nH]c2ccccc12)NCc1cc2ccccc2o1 (centres unmarked) [Example 232, 2-[(Benzofuran-2-ylmethyl)-amino]-3-(1H-indol-3-yl)-N-thiophen-2-ylmethyl-propionamide] | 63 nM
O=C(NCCc1ccc([N+](=O)[O-])cc1)C(Cc1c[nH]c2ccccc12)NCc1cc2ccccc2o1 (centres unmarked) [Example 281, 2-[(Benzofuran-2-ylmethyl)-amino]-3-(1H-indol-3-yl)-N-[2-(4-nitro-phenyl)-ethyl]-propionamide] | 51 nM
O=C(NCc1ccc(Cl)c(Cl)c1)C(Cc1c[nH]c2ccccc12)NCc1cc2ccccc2o1 (centres unmarked) [Example 279, 2-[(Benzofuran-2-ylmethyl)-amino]-N-(3,4-dichloro-benzyl)-3-(1H-indol-3-yl)-propionamide] | 30 nM
CC(NC(=O)C(Cc1c[nH]c2ccccc12)NCc1cc2ccccc2o1)c1cccc(N(C)C)c1 (centres unmarked) [Example 227, 2-[(Benzofuran-2-ylmethyl)-amino]-N-[1-(3-dimethylamino-phenyl)-ethyl]-3-(1H-indol-3-yl)-propionamide] | 182 nM

same assay, conditions: Table 4; [125I]Bolton-Hunter substance P displacement, human IM9 cells; read-out: IC50 (nM) hNK1

Compound | IC50
CC(NC(=O)C(C)(Cc1c[nH]c2ccccc12)NCC=Cc1ccco1)c1ccccc1 (centres unmarked) [compound 322, 2-(3-Furan-2-yl-allylamino)-3-(1H-indol-3-yl)-2-methyl-N-(1-phenyl-ethyl)-propionamide] | 91 nM
CC=C(C)CCC=C(C)CNC(C)(Cc1c[nH]c2ccccc12)C(=O)NC(C)c1ccccc1 (centres unmarked) [compound 352, 2-(2,6-Dimethyl-octa-2,6-dienylamino)-3-(1H-indol-3-yl)-2-methyl-N-(1-phenyl-ethyl)-propionamide] | 2210 nM
CC(NC(=O)C(C)(Cc1c[nH]c2ccccc12)NCc1ccco1)c1ccccc1 (centres unmarked) [compound 314, 2-[(Furan-2-ylmethyl)-amino]-3-(1H-indol-3-yl)-2-methyl-N-(1-phenyl-ethyl)-propionamide] | 141 nM
2-[3-(4-Benzyloxy-phenyl)-allylamino]-3-(1H-indol-3-yl)-2-methyl-N-(1-phenyl-ethyl)-propionamide [compound 340] | 4910 nM
3-(1H-Indol-3-yl)-2-methyl-N-(1-phenyl-ethyl)-2-[4-(2-pyrrolidin-1-yl-ethoxy)-benzylamino]-propionamide [compound 335] | > 10000 nM
CC(NC(=O)C(C)(Cc1c[nH]c2ccccc12)NCc1ccccc1Sc1ccc(Cl)cc1)c1ccccc1 (centres unmarked) [compound 350, 2-[2-(4-Chloro-phenylsulfanyl)-benzylamino]-3-(1H-indol-3-yl)-2-methyl-N-(1-phenyl-ethyl)-propionamide] | > 10000 nM

same assay, conditions: Table 5; [125I]Bolton-Hunter substance P displacement, human IM9 cells; read-out: IC50 (nM) hNK1

Compound | IC50
CC(NC(=O)C(Cc1c[nH]c2ccccc12)NCc1ccc(OCc2ccccc2)cc1)c1ccccc1 (centres unmarked) [compound 379] | 587 nM
CC(NC(=O)C(Cc1c[nH]c2ccccc12)NCc1ccsc1)c1ccccc1 (centres unmarked) [compound 404] | 2390 nM
CC(NC(=O)C(Cc1c[nH]c2ccccc12)NCC1CSc2c([nH]c3ccccc23)C1=O)c1ccccc1 (centres unmarked) [compound 372] | > 10000 nM
CC(NC(=O)C(Cc1c[nH]c2ccccc12)NCC=Cc1ccc(OCc2ccccc2)cc1)c1ccccc1 (centres unmarked) [compound 378] | 932 nM

same assay, conditions: human NK1 receptor, IM9 cells, [125I]Bolton-Hunter substance P; read-out: IC50 (nM) hNK1

Compound | IC50
CC(Cc1c[nH]c2ccccc12)(NCc1cc2ccccc2o1)C(=O)NCc1ccccc1F (centres unmarked) [compound 180, 2-[(Benzofuran-2-ylmethyl)-amino]-N-(2-fluoro-benzyl)-3-(1H-indol-3-yl)-2-methyl-propionamide] | 266 nM
CC(CNC(=O)C(C)(Cc1c[nH]c2ccccc12)NCc1cc2ccccc2o1)c1ccccc1 (centres unmarked) [compound 140, 2-[(Benzofuran-2-ylmethyl)-amino]-3-(1H-indol-3-yl)-2-methyl-N-(2-phenyl-propyl)-propionamide] | > 10000 nM
Cc1cccc(CNC(=O)C(C)(Cc2c[nH]c3ccccc23)NCc2cc3ccccc3o2)c1 (centres unmarked) [compound 129, 2-[(Benzofuran-2-ylmethyl)-amino]-3-(1H-indol-3-yl)-2-methyl-N-(3-methyl-benzyl)-propionamide] | 43 nM
CC(NC(=O)C(C)(Cc1c[nH]c2ccccc12)NCc1cc2ccccc2o1)c1cccc2ccccc12 (centres unmarked) [compound 31, 2-[(Benzofuran-2-ylmethyl)amino]-3-(1H-indol-3-yl)-2-methyl-N-(1-naphthalen-1-yl-ethyl)-propionamide] | > 10000 nM
CC(Cc1c[nH]c2ccccc12)(NCc1cc2ccccc2o1)C(=O)NC(CO)c1ccccc1 (centres unmarked) [compound 29, 2-[(Benzofuran-2-ylmethyl)-amino]-N-(2-hydroxy-1-phenyl-ethyl)-3-(1H-indol-3-yl)-2-methyl-propionamide] | 7 nM
CC(Cc1c[nH]c2ccccc12)(NCc1cc2ccccc2o1)C(=O)NCC(CC(=O)O)c1ccc(Cl)cc1 (centres unmarked) [compound 84, 4-[2-[(Benzofuran-2-ylmethyl)-amino]-3-(1H-indol-3-yl)-2-methyl-propionylamino]-3-(4-chloro-phenyl)-butyric acid] | > 10000 nM
CC(Cc1c[nH]c2ccccc12)(NCc1cc2ccccc2o1)C(=O)NCC(O)c1ccccc1 (centres unmarked) [compound 50, 2-[(Benzofuran-2-ylmethyl)-amino]-N-(2-hydroxy-2-phenyl-ethyl)-3-(1H-indol-3-yl)-2-methyl-propionamide] | 1330 nM
Cc1ccccc1CNC(=O)C(C)(Cc1c[nH]c2ccccc12)NCc1cc2ccccc2o1 (centres unmarked) [compound 157, 2-[(Benzofuran-2-ylmethyl)-amino]-3-(1H-indol-3-yl)-2-methyl-N-(2-methyl-benzyl)-propionamide] | 455 nM
CC(CN1CCCC1=O)NC(=O)C(C)(Cc1c[nH]c2ccccc12)NCc1cc2ccccc2o1 (centres unmarked) [compound 93, 2-[(Benzofuran-2-ylmethyl)-amino]-3-(1H-indol-3-yl)-2-methyl-N-[1-methyl-2-(2-oxo-pyrrolidin-1-yl)-ethyl]-propionamide] | > 10000 nM
CC(Cc1c[nH]c2ccccc12)(NCc1cc2ccccc2o1)C(=O)NCc1ccco1 (centres unmarked) [compound 127, 2-[(Benzofuran-2-ylmethyl)-amino]-N-furan-2-ylmethyl-3-(1H-indol-3-yl)-2-methyl-propionamide] | 191 nM
